Assay [1] concerns A549 cells. The assay can be described thus: BrdU cell proliferation assay. The class given is cell-based. The conditions noted are these: Homo sapiens; A549, 72 h of incubation, 5-30 μM; read-out: IC50, BrdU incorporation. As to the method: Measurement of the BrdU, a thymidine analogue, is a sensitive method used for the detection of DNA synthesis during the S phase of the cell cycle.
A549 tumor cells were plated at a density of 5 × 10^3 cells/well in a volume of 80 µL (96-well plates). After 24 h of incubation in the respective medium, we added the indole phytoalexin 49 in concentrations of 5–30 µM. After 48 h of incubation with the test substance, we added BrdU labeling solution and incubated for another 24 h. Subsequently, the cells were fixed for 30 min with a fixing solution, aspirated and incubated with peroxidase-conjugated anti-BrdU antibody (100 µL, 1:100). After washing with washing buffer 3 times, TMB substrate solution (tetramethylbenzidine, Roche, Basel, Switzerland) was added in a volume of 100 uL to each well. During the reaction, 25 µL of 1M H2SO4 was added as a stop solution, and the amount of BrdU incorporated was detected with an automated Cytation™ 3 Cell Imaging Multi-Mode Reader (Biotek, Winooski, VT, USA) at a wavelength of 450 nm. Three independent analyses were performed.

The subject of assay [2] is A549 cells. As to the kind of experiment: Cell cycle analysis by flow cytometry. The class given is cell-based, human. As to the method:
To examine whether the antiproliferative effect of compound 49 is associated with cell cycle arrest, flow cytometry analyses of cell cycle progression were performed.
The A549 lung human alveolar adenocarcinoma cells were seeded at a density of 2 × 10^5/dish. After 24 h incubation, the cells were treated with indole phytoalexin 49 at 20 µM concentration alone or after 1 h pre-treatment with chloroquine (20 µM), and the control group with DMSO (v/v 0.02%). The whole population of treated cells (adherent and floating) for cell cycle analyses was harvested at three different times (24, 48 and 72 h), washed in cold washing buffer (PBS), fixed in cold 70% ethanol and stored at −20 °C at least overnight. For flow cytometry analyses, cell suspensions were washed with PBS, resuspended in staining solution (Triton X-100 final concentration 0.1%, ribonuclease A final concentration 0.5 mg/mL, and propidium iodide final concentration 0.025 mg/mL) and incubated for 30 min in the dark at RT. Stained cells were analyzed using a BD FACSCalibur^TM Flow Cytometer (Becton Dickinson, San Jose, CA, USA) in FL-2 channel. Three independent analyses were performed.
(In general: Flow cytometry measures light scatter and fluorescence of single cells or particles in a stream.)

The test system of a further assay is MCF-7. The assay can be described thus: MTT screening assay, MCF-7. The class given is cell-based. The following applies: Homo sapiens, MCF7, 72 h incubation. The text has this: The ability of newly synthesized indole phytoalexins to suppress cell proliferation was screened in vitro on eight cancer cell lines including human colorectal carcinoma (Caco-2 and HCT116), human cervical cancer (HeLa), human breast adenocarcinoma (MCF-7, MDA-MB-231), human alveolar adenocarcinoma (A549) and human leukemic T cell lymphoma (Jurkat), and two non-cancer cell lines (MCF-10A, Cos-7).
The cell lines used for this study were Caco-2 (human colorectal adenocarcinoma cell line, American Type Culture Collection, Manassas, VA, USA (ATCC)), HCT116 (human colorectal carcinoma cells European Collection of Authenticated Cell Cultures, Salisbury, UK (ECACC)), HeLa (human cervical tumor cells, ECACC), MCF-7 (human breast tumor cells, ECACC), MDA-MB-231 (human breast tumor cells, ATCC), A549 (human lung carcinoma cells, ATCC), BLM (human melanoma lung metastases, a gift from prof. K. Smetana, Institute of Anatomy, Charles University in Prague), Jurkat (human leukemia cell line, ECACC), Cos-7 (immortalized monkey kidney fibroblasts, ATCC) and MCF-10A (human mammary epithelial cells, ATCC). Caco-2, MCF-7, BLM, Cos-7 and A549 cells were cultured in Dulbecco’s Modified Eagle’s Medium (DMEM) with high glucose and sodium pyruvate (GE Healthcare, Piscataway, NJ, USA); HCT116 lines, HeLa, MDA-MB-231 and Jurkat were cultured in RPMI-1640 medium; and MCF10A cells were cultured in high glucose DMEM/F12 (Dulbecco’s Modified Eagle’s Medium F12). The media were enriched with 10% fetal bovine serum (FBS) and a 1% solution of a mixture of antibiotics and antimycotics 1× HyClone™ (GE Healthcare, Chicago, IL, USA). DMEM/F12 medium was supplemented with epidermal growth factor (EGF) (20 ng/mL final), hydrocortisone (0.5 μg/mL final) and insulin (10 μg/mL final) (Sigma-Aldrich Chemie, Steinheim, Germany). The cells were placed in an incubator at 37 °C with humidified air containing 5% CO2.
The MTT assay is a colorimetric method used to quantify the metabolic activity of cells. MTT (3-(4,5-di-methylthiazol-2-yl)2,5-diphenyltetrazolium bromide) (Sigma-Aldrich Chemie, Steinheim, Germany) is reduced by oxidoreductases in the cytosol of cells to light-absorbing formazan, the presence of which can be measured spectrophotometrically and determines the half-maximal inhibitory concentration (IC50). A549 cells were seeded in […] culture plates at a density of 5 × 10^3 per well. […]
We also incubated the cells with chloroquine at concentrations of 5–20 µM, which was added 1 h before the addition of the test substance, and cisplatin at concentrations of 3–10 µM. […] After 24 h, the absorbance was measured at a wavelength of 540 nm using an automated Cytation™ 3 Cell Imaging Multi-Mode Reader (Biotek, Winooski, VT, USA). […]

In a further assay the test system is glutathione (GSH). As to the kind of experiment: GSH content in treated A549 cells. Type of assay: cell-based, human. The conditions noted are these: A549, 20 µM. The text has this: Glutathione is an important intracellular molecule involved in carcinogen detoxification. On the other hand, its elevated state in cancer cells is often associated with resistance to chemotherapy. […] Because high levels of GSH are associated with cancer cell resistance, the GHS-depleting effect of compound 49 could be interesting due to new cancer chemosensitizer development. In the case of GST and GR, we hypothesize that an increase in the activity of both enzymes may be a compensatory mechanism induced by GSH depletion.
Both floating and adherent A549 cells were harvested at 24, 48, and 72 h after treatment with compound 49 (20 µM). SOD determination kit, Glutathione Peroxidase Cellular Activity Assay kit, Glutathione Reductase Assay Kit and Glutathione-S-transferase (GST) Assay Kit (all Sigma Aldrich, Germany) were used for the detection of relevant enzyme activity. Reduced glutathione (GSH) content was measured by the method originally described by Floreani et al.. Assays were performed on an M 501 single beam UV/VIS spectrophotometer (Spectronic Camspec Ltd., Leeds, United Kingdom). All measured parameters were calculated per milligram or gram of protein determined using the bicinchoninic acid assay.

Some results are limits rather than exact numbers.

Regarding `CC(C)(C)OC(=O)n1cc(CNC(=O)Nc2ccc(NC(=O)NCc3cn(C(=O)OC(C)(C)C)c4ccccc34)cc2)c2ccccc21` [Compound 49, N,N′-(1,4-phenylene)bis{N′-[1-(tert-butoxycarbonyl)indol-3-yl]methyl (urea)}], the IC50 in the assay with A549 cells [1] was 16.1 µM; with MCF-7 it was above 100 µM. The “changes in the G1, S or G2/M phases of the cell cycle” value with A549 cells [2] (A549, 20 µM, 24, 48 and 72 h, vs DMSO) is “non-significant changes”. For the same compound, in the assay with A549 cells [2] (A549, 20 µM, all time points, vs DMSO control), the “sub-G0/G1 subpopulation (marker of apoptosis)” value was “minimal changes”. The “cell cycle, combination with CQ” value in the assay with A549 cells [2] (A549, 49 20 µM + CQ 20 µM, 24 h, vs DMSO, CQ or 49 alone) is recorded as “significant cell cycle arrest at the G1 phase”. Besides, the “subG0/G1 subpopulation, combination with CQ” value in the assay with A549 cells [2] (A549, 49 20 µM + CQ 20 µM, all time points) is on record as “non-significant changes”. For the same compound, the GSH in the assay on glutathione (GSH) (24 h) worked out at 0.395 ± 0.043 nmol/mg Prot; in the assay with glutathione (GSH) (48 h), 0.107 ± 0.015 nmol/mg Prot; in the assay on glutathione (GSH) (72 h) it was 0.228 ± 0.062 nmol/mg Prot.

The record behind these values is publication PMC9822133, “Design, Synthesis and Antiproliferative Evaluation of Bis-Indole Derivatives with a Phenyl Linker: Focus on Autophagy” (Molecules, 2022).
